Publication PMC7108845, “An Alphaherpesvirus Exploits Antimicrobial β-Defensins To Initiate Respiratory Tract Infection” (Journal of Virology, 2020)

What was measured:
EHV1 (isolate 03P37) = type: cell-based, equine herpesvirus type 1
[1] = tested on: equine arteritis virus (08P178); type: cell-based
EIV = type: cell-based, equine influenza virus
[2] = tested on: equine polymorphonuclear (PMN) cells; experiment: CytoSelect cell migration (chemotaxis) assay; conditions: 0 to 10 μg/ml; 96-well Boyden chamber, 5-μm pores; RFU; three donor horses
[3] = tested on: Actinobacillus equuli subsp. equuli (4005); experiment: MIC assay, bacterial growth inhibition; type: cell-based; conditions: Gram-negative; Mueller-Hinton II broth, ~10^6 CFU/ml, 0 to 100 μg/ml eBD, 24 h, 37°C, 5% CO2; lowest concentration with no visible bacterial growth
Description: (§1) To ensure that eBD1, -2, and -3 are potent antimicrobial peptides, a MIC test was performed to determine inhibition of the growth of a number of Gram-positive and Gram-negative bacteria found in the equine respiratory tract by eBDs. The examined concentration range of eBDs ([…] to 100 μg/ml) was chosen based on the antimicrobially active concentration range of human BDs ([21][–][25]).
(§2) Clinical bacterial isolates were used in a MIC assay to investigate the sensitivity of bacterial pathogens from the equine respiratory tract to eBDs. The test organisms included the Gram-positive bacteria Streptococcus equi subsp. zooepidemicus (strain 4001), Streptococcus equi subsp. equi (strain 3830), Staphylococcus aureus (strain 3939), and Rhodococcus equi (strain 3851) and the Gram-negative bacteria Actinobacillus equuli subsp. equuli (strain 4005) and Bordetella bronchiseptica (strain 3033). All organisms were grown on Oxoid sheep blood agar plus plates (Thermo Fisher Scientific) overnight in a humidified incubator (5% CO2) at 37°C. Inocula were prepared by swabbing bacterial colonies from the plates, suspending them in PBS (turbidity equivalent to a 0.5 McFarland standard), and diluting this suspension 1:100 in Mueller-Hinton II (MH) broth (BD Biosciences, San Jose, CA, USA), achieving a final concentration of approximately 10^6 CFU/ml. eBDs were serially 2-fold diluted in MH broth at concentrations ranging from 200 μg/ml to 0.02 μg/ml and pipetted into 96-well microtiter plates (Greiner Bio, Kremsmünster, Austria). The inoculum was added to the eBD dilutions 1:1, and the bacteria were incubated in a humidified incubator (5% CO2) at 37°C for 24 h. MIC values were determined as the lowest concentration of eBD at which there was no visible bacterial growth.

[4] = tested on: Bordetella bronchiseptica (3033); experiment: MIC assay, bacterial growth inhibition; type: cell-based; conditions: Gram-negative; Mueller-Hinton II broth, ~10^6 CFU/ml, 0 to 100 μg/ml eBD, 24 h, 37°C, 5% CO2; lowest concentration with no visible bacterial growth
Description: as §1, §2

[5] = tested on: Staphylococcus aureus (3939); experiment: MIC assay, bacterial growth inhibition; type: cell-based; conditions: Gram-positive; Mueller-Hinton II broth, ~10^6 CFU/ml, 0 to 100 μg/ml eBD, 24 h, 37°C, 5% CO2; lowest concentration with no visible bacterial growth
Description: as §1, §2

[6] = tested on: Streptococcus equi subsp. equi (3830); experiment: MIC assay, bacterial growth inhibition; type: cell-based; conditions: Gram-positive; Mueller-Hinton II broth, ~10^6 CFU/ml, 0 to 100 μg/ml eBD, 24 h, 37°C, 5% CO2; lowest concentration with no visible bacterial growth
Description: as §1, §2

Rhodococcus equi (3851) = experiment: MIC assay, bacterial growth inhibition; type: cell-based; conditions: Gram-positive; Mueller-Hinton II broth, ~10^6 CFU/ml, 0 to 100 μg/ml eBD, 24 h, 37°C, 5% CO2; lowest concentration with no visible bacterial growth
Description: as §1, §2

[7] = tested on: Streptococcus equi subsp. zooepidemicus (4001); experiment: MIC assay, bacterial growth inhibition; type: cell-based; conditions: Gram-positive; Mueller-Hinton II broth, ~10^6 CFU/ml, 0 to 100 μg/ml eBD, 24 h, 37°C, 5% CO2; lowest concentration with no visible bacterial growth
Description: as §1, §2

[8] = tested on: equine CD172a+ monocytic cells; experiment: CytoSelect cell migration (chemotaxis) assay; conditions: 0 to 10 μg/ml, 96-well Boyden chamber
[9] = tested on: EHV1 particles binding to EREC; type: cell-based, equine herpesvirus type 1
[10] = tested on: equine influenza virus (A/equine/Kentucky/98, H3N8); type: cell-based
[11] = tested on: equine CD3+ T lymphocytes; experiment: CytoSelect cell migration (chemotaxis) assay; conditions: 0 to 10 μg/ml; 96-well Boyden chamber, 5-μm pores; RFU; three donor horses
[12] = tested on: EHV1 particles binding to RK13 cells; type: cell-based, equine herpesvirus type 1
EHV1 = type: cell-based, equine herpesvirus type 1
EHV1 RacL11 = type: cell-based, equine herpesvirus type 1
EHV1 RacL11 Δgp2 = type: cell-based, equine herpesvirus type 1
EHV1 RacL11 ΔgM = type: cell-based, equine herpesvirus type 1

Compound | protection of cells from subsequent EAV infection [1] | EIV entry in EREC (EIV) | EIV infectivity in EREC (EIV) | concentration of maximal migration of equine PMN cells [2] | MIC [3] | MIC [4] | MIC [5] | MIC [6] | MIC (Rhodococcus equi (3851)) | MIC [7] | chemotaxis of equine monocytic cells [8] | number of EHV1 particles bound per EHV1-positive EREC [9] | percentage of EREC with bound EHV1 particles [9] | protection of cells from subsequent EIV infection [10] | concentration of maximal migration of equine T lymphocytes [11] | percentage of RK13 cells with bound EHV1 particles [12] | protection of cells from subsequent EHV1 infection (EHV1 (isolate 03P37)) | formation of EAV plaques in RK13 cells [1] | EIV infection of EREC (EIV) | formation of EIV plaques in MDCK cells [10] | also measured
Nc1nc(O)c2ncn(COC(CO)CO)c2n1 [ganciclovir, reference compound] |  |  |  |  |  |  |  |  |  |  |  |  |  |  |  |  |  |  |  |  | formation and spread of EHV1 plaques (EHV1 (isolate 03P37)): almost completely blocked
MRAPYFLLLTLCLFCCQMSSGVGYLTGLGHRSDHYICARSGGTCHFSSCPLFTKIEGTCYGGKAKCCL (also: bicyclic or more (positions not given here)) [eBD1, chemically synthesized equine β-defensin, named according to its human homolog] | failed to protect | no effect on EIV entry | did not alter EIV infectivity | 1 ng/mL | >100 mg/L | >100 mg/L | >100 mg/L | >100 mg/L | >100 mg/L | >100 mg/L | failed to induce | did not significantly differ | 17% ± 6% | failed to protect | 1 µg/mL | 0.78% ± 0.76% | failed to protect |  |  |  | 
MRIHFLLFALLFLFLMPVPGNGGIINMLQKSYCKIRKGRCALLGCLPKEEQIGSCSVSGRKCCRKKK (also: bicyclic or more (positions not given here)) [eBD3, chemically synthesized equine β-defensin, named according to its human homolog] | failed to protect | no effect on EIV entry | did not alter EIV infectivity | 1 ng/mL | 25 mg/L | 100 mg/L | >100 mg/L | 100 mg/L | 25 mg/L | >100 mg/L |  | doubled | 36% ± 8% | failed to protect | 1 µg/mL | 1.26% ± 1.34% | failed to protect | decreased | diminishing subsequent infection of EREC | decreased | EAV infectivity [1]: no effect; concentration of maximal migration of equine monocytic cells ([8]; 5-μm pores, RFU, three donor horses, P < 0.05): 1 µg/mL; EIV infection of MDCK cells [10]: almost completely preventing infection; EIV infectivity [10]: decreased; virus particles bound per positive RK13 cell, relative to eBD1 or control pretreatment [12]: up to 2 fold; EHV1 infection of EREC (EHV1): not able to infect EREC more efficiently; EHV1 infectivity (EHV1 (isolate 03P37)): no effect; average EHV1 plaque diameter (EHV1 (isolate 03P37)): doubling; increase in EHV1 infection in RK13 cells (number of plaques and plaque diameter) (EHV1 (isolate 03P37)): 3.5 fold; increase in susceptibility of RK13 cells to EHV1 (number of plaques) (EHV1 (isolate 03P37)): 1.5 fold
MRILHFLLAFLIVFLLPVPGFTAGIETSFSCSQNGGFCISPKCLPGSKQIGTCILPGSKCCRKK (also: bicyclic or more (positions not given here)) [eBD2, chemically synthesized equine β-defensin, named according to its human homolog] | failed to protect | no effect on EIV entry | did not alter EIV infectivity |  | 25 mg/L | 100 mg/L | >100 mg/L | >100 mg/L | >100 mg/L | >100 mg/L | failed to induce | did not significantly differ | 17% ± 5% | failed to protect | 1 µg/mL | 0.86% ± 0.97% | failed to protect | decreased | diminishing subsequent infection of EREC | decreased | infectivity of parental RacL11 strain in RK13 cells (EHV1 RacL11): enhanced; infectivity of RacL11 Δgp2 in RK13 cells (EHV1 RacL11 Δgp2): increase in infectivity; infectivity of RacL11 ΔgM in RK13 cells (EHV1 RacL11 ΔgM): diminished; virus particles bound per positive RK13 cell, relative to eBD1 or control pretreatment [12]: up to 2 fold; EHV1 infection of EREC (EHV1): not able to infect EREC more efficiently; average EHV1 plaque diameter (EHV1 (isolate 03P37)): doubling; increase in EHV1 infection in RK13 cells (number of plaques and plaque diameter) (EHV1 (isolate 03P37)): 3.5 fold
heparin [reference compound] |  |  |  |  |  |  |  |  |  |  |  |  |  |  |  |  |  |  |  |  | EHV1 final plaque diameter in RK13 cells (EHV1 (isolate 03P37)): did not alter; EHV1 plaque formation in RK13 cells (EHV1 (isolate 03P37)): inhibited
